The record followed here is US20170216213A1, “DIRECTLY COMPRESSIBLE POLYVINYL ALCOHOLS” (Merck Patent GmbH, priority 2014, published 2017).

This data set in a line: Ascorbic acid in-vitro release test (USP Apparatus 2, paddle). It counts as physicochemical. The note with it: from PVA/MCC matrix tablets (samples 1 and 2). As to the method:
9. Ascorbic acid release test: The ascorbic acid-containing compressed tablets (from the compressions with a pressing force of 20 kN) are measured in a SOTAX (Allschwil, Switzerland) in-vitro release apparatus using the “Apparatus 2 (Paddle Apparatus)” described in USP 36 under <711> and under the conditions described therein for “Extended-release dosage forms” (USP=United States Pharmacopoeia). The sampling is carried out automatically via a hose pump system with subsequent measurement in an 8453 spectrometer (Agilent Technologies, USA) and a flow cell.
The averaged values are obtained from the release tests of in each case 6 ascorbic acid-containing tablets pressed with a pressing force of 20 kN.
Measurement Apparatuses and Measurement Parameters:
1. —Sotax AT7s release apparatus fitted with Apparatus 2 (Paddle Apparatus in accordance with USP 36) • Temperature: 37° C.+/−0.5° C. • Paddle speed: 100 rpm • Volume of release medium per measurement vessel: 900 ml • Tablet weight: 500 mg • Total run time of the measurement: 720 min. (with sampling after 15, 30, 45, 60, 120, 180, 240, 300, 360, 420, 480, 540, 600, 660, 720 min.)
2. —Hose pump for sampling: Sotax CY 7-50 (SOTAX, Switzerland)
3. —8453 spectrometer (Agilent Technologies, USA) • Measurement at 244 nm in a 2 mm flow measurement cell • Evaluation via Excel • Medium preparation: Dosa Prep X8 (DOSATEC GmbH, Germany) […]

Consider `O=C1O[C@H]([C@@H](O)CO)C(O)=C1O` [ascorbic acid, L(+)-ascorbic acid], for which the “Duration of retarded in-vitro release” value is reported as “over several hours”.
